In publication PMC5130197 (PLoS ONE, 2016):
Where “and” joins values, the source holds several entries; their conditions need not be identical. Equal values may be shown once. Entries after “also recorded” stand apart in the source; their conditions may differ. Where a name gives a salt, the structure may show the parent alone. Read-outs that look alike come from different tables or passages of the source.

Columns and labels:
[1] = in vivo; settings: Hartley, guinea pig, po, 60 mg/kg; for AUC(0-inf): AUCinf (h·ng/ml); for AUC(0-t): AUClast (h·ng/ml); for Cmax: Cmax (ng/ml)
[2] = test system: EBOV/Mak (Ebola virus Makona variant); assay type: cell-based
[3] = test system: EBOV-eGFP; assay type: cell-based, Ebola virus
[4] = test system: EBOV-eGFP; settings: cited from earlier work
[5] = test system: Ebola virus disease; settings: human, in vivo; cited from earlier work
[6] = test system: EBOV/Kik (Ebola virus Kikwit variant); settings: cited from earlier work
[7] = both, Hartley, guinea pig, in vivo, po, 60 mg/kg
[8] = test system: Vero E6, Hep G2, HeLa, Huh 7 cells
[9] = test system: EBOV/Kik (Ebola virus Kikwit variant); assay type: cell-based
[10] = test system: human MDMs

In the case of `Nc1ccn([C@@H]2CS[C@H](CO)O2)c(=O)n1` [Lamivudine], the Tmax ([1]; both, time to reach peak plasma concentrations) is reported as ≤ 1 h, the AUC(0-inf) ([1]; female) is reported as 12600 ng·h/mL and the AUC(0-t) ([1]; female) is reported as 14600 ng·h/mL. For the same compound, the Cmax ([1]; female) was 4110 ng/mL, the Tmax ([1]; female, Tmax (hr)) was 1 h and the AUC(0-inf) ([1]; male) was 16800 ng·h/mL. For the same compound, the AUC(0-t) ([1]; male) was 15500 ng·h/mL, the Cmax ([1]; male) was 4560 ng/mL and the Tmax ([1]; male, Tmax (hr)) was 1 h. The anti-EBOV activity [2] was “No significant anti-EBOV activity”, the “antiviral activity against EBOV/Mak” value [2] was “did not show antiviral activity; also recorded: did not demonstrate any antiviral activity” and the “antiviral activity against EBOV/Mak infection in MDMs” value [2] was “did not demonstrate any antiviral activity”. The “antiviral activity with extended drug pre-treatment” value [2] was “did not improve”, the “viral inhibition (maximum achieved)” value ([2]; 320 µM) was ≤ 30% and the IC50 ([2]; read-out: IC50) was > 320 µM. The “anti-EBOV activity against EBOV-eGFP” value [3] was “None of these compounds showed any anti-EBOV activity”, the IC25 [4] was 43.13 µM and the “inhibition of viral replication (maximum)” value [4] was ≤ 45%. The patients successfully treated [5] was 13 out of 15, the IC50 [6] was > 320 µM and the “AUCinf higher in male compared with female guinea pigs” value [7] was “about 34%”. The “time of small second peak of plasma concentration” value [7] was 4 to 6 h, the cytotoxicity [8] was “minimal cytotoxicity” and the “antiviral activity against EBOV/Kik” value [9] was “no detectable antiviral activity”. For the same compound, the IC50 ([9]; read-out: IC50) was > 320 µM.
In the case of `CN(C)CCOc1ccc(/C(=C(/CCCl)c2ccccc2)c2ccccc2)cc1` [Toremifene, Toremifene citrate], the “doses at which cytotoxicity increased” value [10] is reported as ≥ 10 µM, the “antiviral activity against EBOV/Mak” value [2] is reported as “strong antiviral activity” and the IC50 ([2]; read-out: IC50) is reported as 1.2 ± 0.1 µM. The IC50 ([2]; read-out: IC50s (range) in MDMs) was 2.1 to 4.5 µM, the IC50 [6] was ~25 µM and 18.3 µM and the IC50 ([9]; read-out: IC50s (range over cell lines)) was 2.2 to 9.9 µM.
For `Cc1cn([C@H]2C[C@H](N=[N+]=[N-])[C@@H](CO)O2)c(=O)[nH]c1=O` [Zidovudine], the “antiviral activity against EBOV/Mak” value [2] was “did not show antiviral activity”, the “antiviral activity against EBOV/Mak infection in MDMs” value [2] was “did not demonstrate any antiviral activity” and the “anti-EBOV activity against EBOV-eGFP” value [3] was “None of these compounds showed any anti-EBOV activity”. The IC50 [6] was > 320 µM, the cytotoxicity [8] was “minimal cytotoxicity” and the “antiviral activity against EBOV/Kik” value [9] was “no detectable antiviral activity”. The IC50 ([9]; read-out: IC50) was > 320 µM.
